# Measured values from patent US5473074A, “Adenosine diphosphoribose polymerase binding nitroso aromatic compounds useful as retroviral inactivating agents, anti-retroviral agents and anti-tumor agents-54” (priority 1992, dated 1995).
# Entries after “also recorded” stand apart in the source; their conditions may differ. Like-named read-outs stand apart in the source and are kept apart here.
# Columns and labels:
# [1] = tested on: ADPRT; settings: cited from earlier work
# [2] = target: Zn(HIV1-F1), N-terminal CCHC zinc finger of the HIV-1 NC protein (Human immunodeficiency virus type 1 lw12.3 isolate, UniProt Q70622); settings: Summers, et al.; cited from earlier work
# [3] = tested on: normal rhesus bone marrow stem cells; experiment: CFU stem cell toxicity assay, FIG. 5A
# [4] = tested on: HIV-1; experiment: Anti-HIV action on stimulated human lymphoblasts, virus titer; type: cell-based; settings: 30 min exposure, virus alone 5.25
# Experimental: VIII. Anti-HIV action of NOBP, NOBA and NOQ on stimulated human lymphoblasts
# Exposure to the two drugs was only for 30 minutes at the commencement of viral infection, and drugs were never re-added. The results given in Table III provide the ID50 of HIV titer 10 days after infection of cell cultures with HIV.
# [5] = target: calf thymus ADPRT (Bos taurus, UniProt P18493); experiment: ADPRT polymerase activity inhibition/inactivation (I50)
# Experimental: The compounds of the subject invention were tested for their ability to inactivate the polymerase activity of adenosinediphosphoribosyl transferase (ADPRT). Assays were performed according to the method of Buki and Kun, Biochem. 27:5990-5995 (1988), using calf thymus ADPRT.
# Assay conditions: ADPRT, 0.4 μg; coDNA, 4 μg; inhibitor diluted
# between 0.8 and 600 μM, in 50 μl of 50 mM TrisHCl, 50 mM KCl, 5 mM
# 2mercaptoethanol, 0.5 mM EDTA, 0.1 mM NAD ([32Plabelled), pH 7.5.
# Polymerization at 25° C. for 4 minutes.
# [6] = tested on: malignant transformation / neoplasia; settings: in vitro and in vivo; Tseng, et al.; cited from earlier work
# [7] = not told
# [8] = tested on: cells / HIV; experiment: Anti-tumor / anti-HIV (biological) action, general statement
# [9] = tested on: cancer cells (855-2 and HL-60 leukemia, D32, D37 and CRL 7712 glioblastoma, 186 medulla tumor, L1210 murine leukemia, MDA-468 human breast tumor); experiment: Functions of cancer cells in absence or presence of compounds (FIGS. 4-9); type: cell-based
# Experimental: (§1) Experiments were performed in which the functions of various cancer cells (855-2 and HL-60 leukemia cells, D32, D37 and CRL 7712 glioblastoma cell lines, 186 medulla tumor cell line, L1210 murine leukemia cell line, MDA-468 human breast tumor cell line) and normal cells (neutrophil leukocytes and bone marrow or peripheral blood stream cells) were assessed in the absence or presence of the compounds.
# [10] = tested on: H9 cells; experiment: [3H]thymidine uptake, H9 cells; type: cell-based, human; settings: 10% FCS
# [11] = tested on: human peripheral blood neutrophil leukocytes
# [12] = tested on: normal human stem cells (PBSC); experiment: Colony formation (CFU-GM) of normal human stem cells (PBSC), FIG. 5B; type: cell-based; settings: 0, 2, 4, 8 and 10 μM
# [13] = tested on: 855-2 cells; experiment: [3H]thymidine uptake / growth, 855-2 cells; type: cell-based, human
# [14] = tested on: 855-2 cells; experiment: Colony formation (CFU) in semi-solid medium, 855-2; type: cell-based, human; settings: single cells in semi-solid medium
# [15] = tested on: normal cells (neutrophil leukocytes and bone marrow or peripheral blood stem cells)
# Experimental: as §1
# [16] = tested on: HL-60 cells; experiment: Colony formation (CFU) in semi-solid medium, HL-60; type: cell-based, human; settings: single cells in semi-solid medium
# [17] = tested on: 855-2 cells; experiment: MTT assay, cytocidal activity; type: cell-based, human; settings: 10 μM, 100,000 cells/ml
# Experimental: MTT (3-[4,5-[…]]-2,5-diphenyltetrazolium bromide) at 1 mg/ml was then added for 16 hours. The absorbance of the pelleted cell was then measured at 550 nm after adding DMSO to solubilze the cells.
# [18] = tested on: human peripheral blood neutrophil leukocytes; experiment: Superoxide generation by human neutrophils; settings: 10 μM; 10^5 PMN + PMA (control 55.9 ± 7.7)
# [19] = tested on: human leukemia cell lines (855-2, H9, HL-60, K562); experiment: [3H]thymidine uptake, human leukemia cell lines (FIG. 2); type: cell-based
# Experimental: FIGS. 2A-2F are composite of graphs displaying the inhibitory effects of the ADRPT ligands on (FIG. 2A) 855-2 cells (a cell line of human B-cell lineage acute lymphoblastic leukemia), (FIG. 2B) H9 cells (a cell line of human T-cell lineage acute lymphoblastic leukemia), (FIG. 2C) HL-60 cells (a cell line of human acute nonlymphoblastic leukemia) and (FIG. 2D) K562 cells (a cell line of human chronic myelogenous leukemia). These cells were cultured while under the influence of the growth factors in 10% fetal bovine serum (FCS), whereas in (FIG. 2E) and (FIG. 2F) the 855-2 cells were cultured in the presence of autocrine growth factor activity (AGF) or low molecular weight-B-cell growth factor (BCGF, a T-cell derived lymphokine), respectively.
# [20] = tested on: K562 cells; experiment: [3H]thymidine uptake, K562 cells; type: cell-based, human; settings: 10% fetal bovine serum
# [21] = tested on: 855-2 leukemia cells; experiment: 855-2 growth inhibition, comparison with vincristine (FIG. 7); type: cell-based, human
# Experimental: Vincristine, a highly toxic chemotherapeutic compound, is currently used in the treatment of leukemia and other malignancies. […] Vincristine was tested in doses of 0.1, 1, 10 and 100 μM.
# calf thymus ADPRT, sequence (P18493 whole entry): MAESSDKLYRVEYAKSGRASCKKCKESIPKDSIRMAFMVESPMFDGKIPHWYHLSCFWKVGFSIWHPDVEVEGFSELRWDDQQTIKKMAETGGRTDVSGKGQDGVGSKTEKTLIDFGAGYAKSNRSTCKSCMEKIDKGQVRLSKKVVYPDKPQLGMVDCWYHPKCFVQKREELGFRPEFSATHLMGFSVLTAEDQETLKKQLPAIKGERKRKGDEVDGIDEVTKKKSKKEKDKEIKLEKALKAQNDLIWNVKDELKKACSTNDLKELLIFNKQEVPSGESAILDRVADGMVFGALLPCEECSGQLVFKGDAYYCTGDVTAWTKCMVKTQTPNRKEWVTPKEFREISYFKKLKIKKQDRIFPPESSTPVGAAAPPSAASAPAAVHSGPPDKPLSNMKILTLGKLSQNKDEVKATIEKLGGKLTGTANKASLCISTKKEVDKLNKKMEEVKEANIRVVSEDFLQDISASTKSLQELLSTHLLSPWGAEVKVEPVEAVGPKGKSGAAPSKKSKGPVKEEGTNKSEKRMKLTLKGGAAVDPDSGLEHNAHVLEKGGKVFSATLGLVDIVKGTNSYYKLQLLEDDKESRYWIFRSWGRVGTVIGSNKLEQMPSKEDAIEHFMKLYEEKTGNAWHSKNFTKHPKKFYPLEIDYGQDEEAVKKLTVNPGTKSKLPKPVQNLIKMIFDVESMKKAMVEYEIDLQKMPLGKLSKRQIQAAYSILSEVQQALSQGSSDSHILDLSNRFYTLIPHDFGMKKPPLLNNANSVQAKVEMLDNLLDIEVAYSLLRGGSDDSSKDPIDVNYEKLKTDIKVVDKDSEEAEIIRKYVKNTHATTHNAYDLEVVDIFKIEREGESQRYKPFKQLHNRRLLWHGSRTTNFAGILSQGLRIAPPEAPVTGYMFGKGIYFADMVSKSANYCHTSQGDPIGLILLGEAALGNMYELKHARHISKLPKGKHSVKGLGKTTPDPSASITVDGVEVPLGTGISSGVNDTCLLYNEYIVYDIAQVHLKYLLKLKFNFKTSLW
molecule,measurement,setting,value
c1ccc2cnccc2c1 [isoquinoline],"inhibition of ADPRT polymerase activity, in words",[1],known to inhibit ADPRT polymerase activity
O=c1c(O)c(-c2ccc(O)c(O)c2)oc2cc(O)cc(O)c12 [quercetin],"inhibition of ADPRT polymerase activity, in words",[1],known to inhibit ADPRT polymerase activity
O=C(O)CN(CCN(CC(=O)O)CC(=O)O)CC(=O)O [EDTA],molar excess required to remove zinc from Zn(HIV-1-F1),[2],10 -fold molar excess
"Nc1ccc2oc(=O)ccc2c1I [IABP, 5-iodo-6-amino-1,2-benzopyrone]","CFU stem cell toxicity, in words",[3]; 250 μM,toxic at the tested given doses
same,"Virus Titer (log ID50), 10 days",[4]; 250 μM,4.66 log ID50
same,"inhibition of ADPRT polymerase activity, in words",[1],known ADPRT polymerase activity inhibitors
same,IC50,[5],41 µM
NC(=O)c1ccccc1 [benzamide],"inhibition of ADPRT polymerase activity, in words",[1],known to inhibit ADPRT polymerase activity
"O=c1ccc2ccccc2o1 [coumarin (1,2-benzopyrone), 1,2-benzopyrone]","anti-transforming and anti-neoplastic effect, in words",[6],anti-transforming and anti-neoplastic effect
same,"inhibition of ADPRT polymerase activity, in words",[1],known to inhibit ADPRT polymerase activity
same,"inhibition of ADPRT polymerase activity, in words","[1]; listed as 1,2-benzopyrone (coumarin)",inhibitory ligand of adenosinediphosphoribosyl transferase (ADPRT)
"O=Nc1ccc2oc(=O)ccc2c1I [5-I-6-NO-1,2-benzopyrone, 5-iodo-6-nitroso-1,2-benzopyrone]","permeation, in words",[7],poor permeant molecule
same,"biological action relative to 6-NO-1,2-benzopyrone","[8]; vs 6-NO-1,2-benzopyrone",10 times weaker
same,"ADPRT inhibition, in words",[5],relatively poor inhibitor of ADRPT
same,IC50,[5],400 µM
"O=c1ccc2cc([N+](=O)[O-])ccc2o1 [NO2 BP, 6-nitro-1,2-benzopyrone]","Virus Titer (log ID50), 10 days",[4]; 250 μM,4.93 log ID50
same,"activity against tumor cells, in words",[9],weakly active
same,"activity against tumor cells, in words",[9]; listed as 6-nitro derivative,almost ineffective (against tumor cells)
3-aminonaphthylhydrazide,"inhibition of ADPRT polymerase activity, in words",[1],known to inhibit ADPRT polymerase activity
"O=Nc1ccc2oc(=O)ccc2c1 [NOBP, 6-nitroso-1,2-benzopyrone]","inhibition of thymidine uptake, H9",[10]; 100 μM,almost complete inhibition
same,inhibition at 10 µM,"[10]; Homo sapiens, H9, 10 μM",~30%
same,"superoxide generation, in words",[11],Only minor reductions in superoxide generation
same,"cytotoxicity on CFU-GM of PBSC, in words",[12],Toxicity was not detected
same,"relative inhibition of thymidine uptake, 855-2","[13]; 1 μM, 10% fetal bovine serum",somewhat more inhibition than NOBA
same,"inhibition of thymidine uptake, 855-2","[13]; 10 μM, 10% fetal bovine serum",almost complete inhibition
same,growth arrest of 855-2 cells at increasing serum concentration,"[13]; 10 μM, increasing FCS",Growth arrest occurs irrespective of the concentration of FCS
same,"relative potency, 855-2",[13]; 10% fetal bovine serum,potent inhibitory effects regardless of the source of growth factor activity
same,"colony formation, 855-2, in words",[14],inhibit the ability of human leukemic cells (855-2 and HL-60) to form colonies
same,"Virus Titer (log ID50), 10 days",[4]; 10 μM,2.01 log ID50
same,"effect on normal stem cell colony formation (FIG. 5), in words",[15],minimal effect on normal cells
same,"effect on viability of normal cells, in words",[15],not to affect adversely the viability of normal cells
same,"toxicity to normal cells, in words",[15],not toxic to normal cells
same,"colony formation, HL-60, in words",[16],inhibit the ability of human leukemic cells (855-2 and HL-60) to form colonies
same,"killing of 855-2 cells (MTT), in words",[17],complete killing
same,"superoxide generation by human neutrophils (mean + S.D., n = 11)",[18],34.1 ± 14.1 nmol O2^- /hr/10^5 cells
same,"inhibition of 3H-thymidine uptake, in words","[19]; 10 μM, 855-2, H9, HL-60, K562 cells",powerfully inhibited 3H-thymidine uptake
same,"molar concentrations needed to inhibit 3H-thymidine uptake, in words",[19]; each of the cell lines tested,able to inhibit 3H-thymidine uptake in lower molar concentrations than the other compounds
same,"inhibition of cell growth (thymidine uptake), K562",[20]; 100 μM,almost complete inhibition
same,"relative potency, K562",[20],most potent inhibitors of cell growth; also recorded: almost as potent as NOQ
same,"anti-tumor and anti-HIV activity, in words",[8],highly active as anti-tumor and anti-HIV molecules
same,effectiveness after short exposure of cells,[8]; exposure as short as 30 minutes,effective even after exposure of cells for a period as short as 30 minutes
same,IC50,[5],40 µM
same,"activity against tumor cells, in words",[9],highly effective (against tumor cells)
same,potency relative to vincristine,[21]; vs equal concentration of vincristine,about 10 times more potent
"Nc1ccc2oc(=O)ccc2c1 [ABP, 6-amino-1,2-benzopyrone]","CFU stem cell toxicity, in words",[3]; 1 mM,toxic at the tested given doses
same,"Virus Titer (log ID50), 10 days",[4]; 500 μM,4.50 log ID50
same,"ADPRT binding, in words","[1]; site that also binds to DNA, Hakam, et al.",binds specifically to ADRPT at the site that also binds to DNA
same,IC50,[5],370 µM
"CC[C@]1(O)C[C@H]2CN(CCc3c([nH]c4ccccc34)[C@@](C(=O)OC)(c3cc4c(cc3OC)N(C=O)[C@H]3[C@@](O)(C(=O)OC)[C@H](OC(C)=O)[C@]5(CC)C=CCN6CC[C@]43[C@@H]65)C2)C1 [vincristine, reference compound]",concentration required to produce the same level of inhibition as 10 μM NOBP,[21]; in vitro,100 µM
